Converted amounts (≈) assume the structure as drawn. “And” between values parts separate entries of the source, which are not always exact repeats. Equal values may be shown once.
Key:
[1] = tested on: ROS produced by human blood phagocytes; test: Oxidative burst, luminol-enhanced chemiluminescence in whole blood; format: cell-based; conditions: serum opsonized zymosan
Procedure: Formation of the reactive oxygen species (ROS) in whole blood, during the oxidative burst was measured by the luminol-enhanced chemiluminescence assay. In brief, three concentrations of each compound (1.0, 10 and 100 μg/mL) were prepared in 25 μL of Hank's Balanced salt solution containing calcium chloride and magnesium sulfate (HBSS^++) in a half area 96-well white flat-bottomed plate (Sigma Aldrich, Steinheim, Germany) in a final volume of 100 μL. Then 25 μL of whole blood diluted 1:50 in suspension of HBSS^++ was added.
Positive and negative controls and blank wells were included. Cells and compounds were incubated for 30 minutes at 37° C., then 25 μL luminol [3-aminophthalhydrazide] (Research Organics Cleveland, Ohio, USA), were added into each well followed by 25 μL of serum opsonized zymosan (Saccharomyces cerevisiae origin) purchased from Fluka, Buchs (Switzerland) was added except for negative and blank wells. The ROS chemiluminescence kinetic was monitored with a luminometer from Labsystems (Helsinki, Finland), for 50 minutes in the repeated scan mode. Peak and total integral chemiluminescence readings were expressed in the relative light unit.

[2] = tested on: 3T3 NIH mouse embryo fibroblast cell line; test: MTT cytotoxicity assay; conditions: for Cytotoxicity IC50: 3T3 NIH cells, 48 h; for interference with the growth of 3T3 cells: up to 20 μg/mL
Procedure: The 3T3-NIH cells were suspended in Dulbecco's Modified Eagle's Medium (DMEM) formulated with 10% FBS. Using flat bottomed plates, cells were plated at a concentration of 6×10^4 cells/mL and incubated for 24 h at 37° C. and 5% CO2 environment. […] Following exposure to each compound, cell viability was assessed by using 0.5 mg/mL of MTT {3-(4,5-dimethylthiazol-2-yl)-2,5-diphenyltetrazolium bromide for 4 h followed by the removal of supernatant and addition of DMSO to solubilize the formazan complex. The plates were read at 540 nm after one minute shaking and readings were processed using MS Excel software. The results were expressed as means±SD of triplicate readings.

[3] = tested on: NO produced by mouse macrophages J774.2 cell line; test: Nitrite accumulation in LPS-stimulated J774.2 macrophages (Griess method); format: cell-based; conditions: LPS-stimulated J774.2, 24 hours
Procedure: The mouse macrophage cell line J774.2 obtained from ECACC, Salisbury, Wiltshire (UK) was cultured in T75 flasks in complete DMEM containing 10% fetal bovine serum and supplemented with 1% streptomycin/penicillin. Flasks were kept at 37° C. in the atmosphere of humidified air containing 5% CO2. Cell were then seeded in 24 well (10^6 cells/mL) and nitric oxide synthase (NOS-2) in the macrophages was induced by addition of 20 μg/mL E. coli lipopolysaccharide (DIFCO Laboratories, Michigan, USA). The test compounds were added at a concentration of 25 μg/mL soon after LPS stimulation and incubated at 37° C. in 5% CO2. Cell culture supernatant was collected after 24 hours. Nitrite accumulation in J774.2 cell culture supernatant was measured using the Griess method, where 50 μL of 1% sulphanilamide in 2.5% phosphoric acid, followed by 50 μL of 0.1% naphtyl-ethylene diamine dihydrochloride in 2.5% phosphoric acid were added to 50 μL culture medium. After 10 minutes of incubation at room temperature the absorbance at 550 nm was read. Micromolar concentrations of nitrite were calculated from standard curve constructed with sodium nitrite a reference compound. The results were expressed as means±SD of duplicate readings.

[4] = tested on: IL-2 production; test: IL-2 production by PHA/PMA stimulated PBMCs (ELISA); format: cell-based, human; conditions: for IC50: experimental IL-2 IC50 listed in Table 3
Procedure: The PBMCs were cultured in a 96-well flat-bottomed plate (1.0×10^5 cell/well) in the presence or absence of three concentrations of test compounds (1.0, 5.0 and 20 μg/mL), and phytohemagglutinin (PHA) phorbol myristate acetate (PMA) in a final concentration of 5 ng/mL and 20 ng/mL, respectively. After an incubation period of 18 h at 37° C. in a humidified atmosphere of 5% CO2 in air, the supernatant was collected for IL-2 determination. Interleukin-2 levels were measured by using enzyme-linked immunosorbent assay (ELISA) development kit (R&D systems, Minneapolis, Minn., USA). The assay was performed according to the manufacturer's instructions. Briefly, a 96-well flat-bottomed ELISA plate was coated with 4.0 μg/mL mouse anti-human IL-2, in PBS, pH 7.4. Then, re-combinant human IL-2 standards and culture supernatant samples were added and incubated for 2 h followed by washing steps and then the addition of biotinylated goat anti-human IL-2. After an incubation period of 2 h at room temperature, the plates were again washed and streptavidin conjugated horse raddish peroxidase was added and incubated for additional 20 min at room temperature. After the final washes, an enzyme substrate solution of H2O2 and tetra methyl benzidine (1:1 v/v) was added and the color was allowed to develop at room temperature in the dark. The plates were then read at 450 nm in a plate reader (DIAReader GMBH, Wr. Neudorf, Austria). The results were analyzed using Microsoft Excel.

[5] = tested on: NO produced by mouse macrophages J774.2 cell line; test: Nitrite accumulation in LPS-stimulated J774.2 macrophages (Griess method); format: cell-based
[6] = tested on: T-cell proliferation; test: T-cell proliferation assay (PHA-stimulated PBMNCs, 3H-thymidine incorporation); format: cell-based, human; parameters: unit not given here; conditions: PHA 5 μg/mL stimulated PBMNCs
Procedure: The diluted blood was then layered onto lymphocyte separation medium (MP Biomedicals, Inc., Ohio, USA) and centrifuged at 400 g for 20 min at 25° C. […] Plates were then incubated at 37° C. in a humidified atmosphere of 5% CO2 in air for 72 hours. To each well, 0.5 μCi [methyl ^3H]-thymidine (Amersham Place Little Chalfont, Buckinghamshire, UK) was added for an additional 18 hours. Cells were harvested using a cell harvester (Inotech, Dottikon, Switzerland), and incorporation and level of radioactivity was measured by a liquid scintillation counter (Beckman coulter, LS 6500, Fullerton, Calif., USA).

[7] = tested on: IL-4 production; test: IL-4 production by PHA stimulated PBMNCs (ELISA); format: cell-based, human; conditions: 18 h
Procedure: The PBMNCs were cultured in a 96-well flat-bottomed plate (2.0×10^6 cell/mL) in the presence or absence of three concentrations of test compounds (1.0, 5.0, and 25 μg/mL), and phytohemagglutinin (PHA) in a final concentration of 7.5 μg/mL. After an incubation period of 18 h at 37° C. in 5% CO2, supernatant was collected for IL-4 determination. Interleukin-4 levels were measured by using enzyme-linked immunosorbent assay (ELISA) kit (Diaclone, France). The assay was performed according to the manufacturer's instructions. Briefly, in a 96-well ELISA plate which was coated with monoclonal mouse anti-human IL-4, 100 μl recombinant human IL-4 standards and culture supernatants samples were added. The plates were incubated for 2 hours at room temperature and washed three times with wash buffer, followed by the addition of biotinylated goat anti-human IL-4 and further incubated for 1 hour at room temperature. The plates were again washed and streptavidin conjugated horse raddish peroxidase was added and incubated for an additional 20 minutes at room temperature. After three final washes, the enzyme substrate solution was added and incubated for 12 to 15 minutes to allow color development at room temperature in the dark. Then stop solution was added and the plates were read at 450 nm in a plate reader (DIAReader GMBH, Wr. Neudorf, Austria). The results were analyzed using Microsoft Excel.

| SMILES | IC50 (μg/mL) for phagocytes ROS [1] | Cytotoxicity IC50 [2] | interference with the growth of 3T3 cells [2] | % of NO inhibited by 25 μg/mL of compound [3] | other results |
| --- | --- | --- | --- | --- | --- |
| c1csc(-c2nc3ccccc3s2)c1 [Compound 24] | 14.4 ± 2.5 µg/mL | >25 µg/mL | did not interfere with the growth of 3T3 cells | 30.3 ± 0.3% |  |
| Oc1ccccc1-c1nc2ccccc2s1 [Compound 16] | >100 µg/mL |  |  | 20.2 ± 1.5% |  |
| Brc1ccc(-c2nc3ccccc3s2)cc1 [Compound 21] | >100 µg/mL |  |  | 11.5 ± 2.7% |  |
| Cc1ccccc1-c1nc2ccccc2s1 [Compound 7] | >100 µg/mL |  |  | 5.4 ± 2.8% |  |
| Oc1ccc(-c2nc3ccccc3s2)cc1 [Compound 4] | >100 µg/mL | >25 µg/mL | did not interfere with the growth of 3T3 cells | 56.1±0.6% | IC50 [4]: 2.9 µg/mL (≈ 12.8 µM); IC50 NO production [5]: 7.9 ± 0.9 µg/mL (≈ 34.8 µM); IC50 T-cell proliferation [6]: 2.3±0.1 |
| Oc1ccc(O)c(-c2nc3ccccc3s2)c1 [Compound 8] | <1 µg/mL | >20 µg/mL | did not interfere with the growth of 3T3 cells | 91.1±0.7% | IC50 [4]: <1 µg/mL; IC50 NO production [5]: < 5 µg/mL; IC50 IL-4 production [7]: 9.8 ± 0.6 µg/mL (≈ 40.3 µM); IC50 T-cell proliferation [6]: 1.1±0.1 |
| COc1ccc(-c2nc3ccccc3s2)cc1OC [Compound 12] | >100 µg/mL |  |  | −1.5 ± 0.6% | IC50 IL-4 production [7]: < 1.0 µg/mL; IC50 T-cell proliferation [6]: 1.0±0.1 |
| Clc1ccc(-c2nc3ccccc3s2)cc1 [Compound 25] | >100 µg/mL |  |  | 20.6 ± 5.3% |  |
| c1ccc2sc(-c3ccncc3)nc2c1 [Compound 20] | 15.5 ± 1.0 µg/mL | >25 µg/mL |  | 41.6 ± 4.7% |  |
| Oc1cc(O)c(-c2nc3ccccc3s2)cc1O [Compound 18] | >100 µg/mL | 10.4 µg/mL |  | 78.1±1.6% | IC50 [4]: 1.1 µg/mL (≈ 4.24 µM); IC50 IL-4 production [7]: 8.0 ± 0.0 µg/mL (≈ 30.9 µM); IC50 T-cell proliferation [6]: 1.95±0.4 |
| Oc1ccc(-c2nc3ccccc3s2)cc1O [Compound 9] | 3.7 ± 0.2 µg/mL | 11.1 µg/mL and 11.4 ± 1.8 µg/mL | did not interfere with the growth of 3T3 cells | 58.5±3.3% | IC50 NO production [5]: 12.6 ± 2.1 µg/mL (≈ 51.8 µM); IC50 T-cell proliferation [6]: 1.2±0.0 |
| c1cncc(-c2nc3ccccc3s2)c1 [Compound 19] | >100 µg/mL |  |  | 11.7 ± 1.7% |  |
| Oc1ccc(-c2nc3ccccc3s2)c(O)c1 [Compound 13] | 11.1 ± 0.9 µg/mL | 11.5 ± 0.0 µg/mL | did not interfere with the growth of 3T3 cells | 32.7 ± 8.3% |  |
| Oc1cccc(-c2nc3ccccc3s2)c1 [Compound 5] | >100 µg/mL | >20 µg/mL | did not interfere with the growth of 3T3 cells | 44.5 ± 0.3% | IC50 IL-2 production ([4]; PHA/PMA stimulated PBMCs, 18 h incubation): 6.0 µg/mL (≈ 26.4 µM); IC50 IL-4 production [7]: 8.9 ± 0.6 µg/mL (≈ 39.2 µM); IC50 T-cell proliferation [6]: 2.7±0.2 |
| Clc1ccc(-c2nc3ccccc3s2)cc1Cl [Compound 26] | >100 µg/mL |  |  | 35.7 ± 1.5% |  |
| Clc1ccc(-c2nc3ccccc3s2)c(Cl)c1 [Compound 11] | >100 µg/mL |  |  | −7.4 ± 3.0% |  |
| CN(C)c1ccc(-c2nc3ccccc3s2)cc1 [Compound 14] | 11.8 ± 1.2 µg/mL | >25 µg/mL | did not interfere with the growth of 3T3 cells | 16.8 ± 0.8% |  |
| Clc1cccc(-c2nc3ccccc3s2)c1 [Compound 17] | 81.0 ± 4.1 µg/mL |  |  | 14.1 ± 3.0% |  |
| Fc1ccccc1-c1nc2ccccc2s1 [Compound 23] | >100 µg/mL |  |  | 28.4 ± 2.5% |  |
| Oc1cccc(-c2nc3ccccc3s2)c1O [Compound 10] | 1.1 ± 0.1 µg/mL |  | did not interfere with the growth of 3T3 cells | 14.3 ± 1.0% | IC50 T-cell proliferation [6]: 0.99±0.1 |
| CCOc1cccc(-c2nc3ccccc3s2)c1O [Compound 1] | >100 µg/mL |  |  | 26.5 ± 0.0% |  |
| Cc1ccc(-c2nc3ccccc3s2)cc1 [Compound 15] | >100 µg/mL |  |  | 10.8 ± 2.4% |  |
| c1ccc2cc(-c3nc4ccccc4s3)ccc2c1 [Compound 3] | >100 µg/mL |  |  | 20.5 ± 5.9% |  |
| CCOc1ccc(-c2nc3ccccc3s2)cc1 [Compound 22] | >100 µg/mL |  |  | 23.5 ± 3.7% |  |
| Oc1ccc(Cl)cc1-c1nc2ccccc2s1 [Compound 6] | 34.3 ± 4.4 µg/mL |  |  | 35.5 ± 7.4% |  |
| CC(C)Cc1ccc(C(C)C(=O)O)cc1 (centres unmarked) [Ibuprofen, reference compound] |  |  |  |  | IC50 ([1]; read-out: IC50 (μg/mL) for phagocytes ROS): 11.8 ± 1.2 µg/mL |

— patent publication US20140378515A1, “IMMUNOSUPPRESSIVE COMPOUNDS” (priority 2013, published 2014)
